Here are results for two compounds from paper PMC12305494, “Discovery of PXR Antagonist MI891 and PXR Degrader MI1013 and Their Roles in Hepatic Gene Regulation” (Journal of Medicinal Chemistry, 2025).

Numbering of substitutions follows the chain as printed.

Data set [1] concerns HepG2 cells. Put plainly: CellTiter-Glo cytotoxicity assay, HepG2. The class given is cell-based, human. To be noted: 24 h. The procedure:
(§1) For the cytotoxicity assays involving HepG2, COS-1, and HK-2 cell lines, serial dilutions of MI891 or MI1013 were added to white 96-well tissue culture-treated plates containing these cell lines. After incubating the plates for 24 h at 37 °C, cytotoxicity was assessed using the CellTiter-Glo luminescent cell viability assay (Promega). The luminescence signal was measured with a Synergy2 plate reader (BioTek, Winooski, Vermont, USA) and presented as a relative change compared to the vehicle (DMSO, 0.1%) control, which was set at 100%.
Background: In ATP-based viability assays light output follows the ATP content of the culture.

Data set [2] addresses T1, triple mutant (S208W/S247W/C284W) PXR LBD (Homo sapiens, UniProt O75469, C284W/S208W/S247W).
T1 construct: the GAL4-PXR-LBD triple mutants (S247W/C284W/S208W) construct; expressed in transfected cells; host or cells: HepG2
T1 sequence (O75469 146-433 S208W/S247W/C284W limits assumed): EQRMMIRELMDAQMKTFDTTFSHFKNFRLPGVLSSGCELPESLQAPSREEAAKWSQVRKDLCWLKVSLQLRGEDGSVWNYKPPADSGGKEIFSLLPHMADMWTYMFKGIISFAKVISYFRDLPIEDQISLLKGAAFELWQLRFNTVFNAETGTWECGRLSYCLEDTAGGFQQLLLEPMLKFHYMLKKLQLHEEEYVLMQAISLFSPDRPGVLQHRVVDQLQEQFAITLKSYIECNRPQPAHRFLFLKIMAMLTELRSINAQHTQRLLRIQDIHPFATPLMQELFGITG
The experiment in a line: Mammalian two-hybrid assay, obstructed triple mutant PXR LBD with SRC-1-VP16 in HepG2. The class given is cell-based. An excerpt:
(§2) Additionally, the GAL4-PXR-LBD triple mutants (S247W/C284W/S208W) construct and wild-type GAL4-wtPXR vector were used for PXR LBD mutant functional two-hybrid assay as we described before. In the mammalian two-hybrid assay, HepG2 cells were cotransfected with a GAL4-hPXR LBD construct and pSCR1-VP16 construct. Renilla luciferase vector was used for the normalization of firefly luciferase activity to Renilla luciferase activity.

The test system of data set [3] is HK-2 cells. Put plainly: CellTiter-Glo cytotoxicity assay, HK-2. The class given is cell-based, human. Conditions: 24 h. The procedure: as §1
The subject of data set [4] is ERα/β. The experiment in a line: ERα/β agonist reporter assay. The class given is cell-based. Conditions: 10 µM MI891. The procedure: For the farnesoid X receptor (FXR) luciferase gene reporter assay, the full-length expression vector was paired with pFXRE-luc luciferase construct. The p1A1-luc construct was used in the aryl hydrocarbon receptor (AhR) assays with pRL-TK for normalization. Gal4-LXR-α/β, and Gal4-PPAR-γ constructs were used with the pGAL4 UAS-luc construct. For the VDR assay, expression vector pSG5-hVDR together with pVDRE-luc constructs was used. Firefly and Renilla luciferase activities were analyzed using a Dual reporter assay (Promega). For the nuclear receptor assays, prototype ligands were used at the following concentrations: Calcitriol for VDR (100 nM), GW3965 for LXRα and LXRβ (10 μM), 6-OCA for FXR (1 μM), fenofibrate for PPARα (10 μM), estradiol for ERα and β (10 μM), rosiglitazone for PPARγ (10 μM), 3-MC for AhR (5 μM), and TCPOBOP for mCAR (10 μM). Detailed descriptions and protocols are detailed in our recent publication. , […]
hydrophobic interactions. (F) Superimposed diagram of PXR bound with agonist (SJPYT-328) and antagonists (MI891 and SJPYT-331) to differentiate the agonist and antagonist interactions with helix 12 (H12). The interaction of the agonist with PXR residue (L428) is circled. (G) Extended nuclear receptor selectivity profile. […]
In general terms: A reporter such as luciferase makes a cellular process visible.

Data set [5] relates to HepaRG cells. Put plainly: RT-qPCR gene expression in differentiated HepaRG cells. The class given is cell-based, human. Conditions: 48 h. The procedure:
HepaRG cells (Sigma-Aldrich/Merck) were cultivated and differentiated on 12-well plates. Seeded at 26,600 cells/cm^2, they were maintained in William’s medium with supplements. After 14 days, differentiation into hepatocyte-like cells was induced using 1.5% DMSO for another 14 days.
RT-qPCR was utilized to investigate gene expression in HepaRG and PHH. Total RNA was extracted from these cells using the phenol–chloroform method. The concentration of the isolated RNA was then measured using a Nanodrop 1000 spectro-photometer (Thermo Fisher Scientific).
Following RNA isolation, reverse transcription was performed to convert RNA into complementary DNA (cDNA). This step was carried out using the High-capacity cDNA reverse transcription kit (Cat. No. 4374966, ThermoFisher Scientific). The resulting cDNA served as the template for subsequent qPCR reactions.
The qPCR reactions were conducted on the QuantStudio 6 Flex Real-Time PCR System (ThermoFisher Scientific, Waltham, Mas-sachusetts). For these reactions, TaqMan Universal master mix II (Cat. No. 4440047, ThermoFisher Scientific) and TaqMan assays (FAM) utilized in this study are detailed in the Supporting Information. To quantify gene expression, the cycle threshold (Ct) values of the target genes were normalized to the Ct values of reference genes HPRT1 or GAPDH (HepaRG) or TBP (PHH). The normalized values were then expressed as fold changes (2−ΔΔCt) relative to the DMSO control at the specified time points, with the control set as 1.
(Quantitative PCR measures a nucleic acid by following its amplification.)

For data set [6], the system named is COS-1 cells. Put plainly: CellTiter-Glo cytotoxicity assay, COS-1. The class given is cell-based, monkey. To be noted: 24 h. The procedure:
as §1

The target in data set [7] is T2, wild-type PXR LBD (Homo sapiens, UniProt O75469).
T2 construct: HepG2 cells were cotransfected with a GAL4-hPXR LBD construct and pSCR1-VP16 construct; expressed in transfected cells; host or cells: HepG2
T2 sequence (O75469 146-433 limits assumed): T1 sequence (O75469 146-433 S208W/S247W/C284W limits assumed) with W63S, W102S, W139C
Put plainly: Mammalian two-hybrid assay, wt-PXR LBD with SRC-1-VP16 in HepG2. The class given is cell-based. Conditions: MI891 at 10 μM.
From the text: as §2

Turning to `NC(=O)c1cc(Cn2cc(-c3c(-c4ccc(Cl)cc4)nc4c(F)cc(F)cn34)nn2)ccc1Cl` [Compound 11, 2-Chloro-5-((4-(2-(4-chlorophenyl)-6,8-difluoroimidazo[1,2-a]pyridin-3-yl)-1H-1,2,3-triazol-1-yl)methyl)-benzamide], the effect on viability result in data set [1] (HepG2, up to 30 μM) was “no effects on viability”; in data set [3] (HK-2, up to 30 μM), “no effects on viability”; in data set [6] (COS-1, up to 30 μM) it was “no effects on viability”. The “activation of obstructed mutated PXR LBD two-hybrid” value in data set [2] is given as “Neither MI891 nor SPA70 activated the obstructed mutated PXR LBD”. Further, the “agonistic effect on ERα/β” value in data set [4] was “no agonistic effects”. Moreover, the “SULT1E1, SULT1B1, CYP7B1 and NR0B2 (SHP) gene expression” value in data set [5] (MI891 5 μM, MI1013 2 μM) is on record as “significantly downregulated”. The “CYP2B6 mRNA expression” value in data set [5] (at 1 μM, no significant activation at higher concentrations) was “slightly induced”. Moreover, the “CYP3A4 mRNA expression” value in data set [5] (alone or with rifampicin (5 μM), concentration-dependent) was “suppressed both rifampicin-induced and basal (constitutive) CYP3A4 mRNA expression”. Also, in data set [7], the “effect on wt-PXR-LBD/SRC1-VP16 two-hybrid” value is “disrupted the wt-PXR-LBD/SRC1-VP16 interaction”.

Regarding “N-(4-((1-(2,5-dimethoxyphenyl)-5-methyl-1H-1,2,3-triazol-4-yl)sulfonyl)phenyl)-3-(2-(2-(2-(4-(((2-(2,6-dioxopiperidin-3-yl)-1,3-dioxoisoindolin-4-yl)amino)methyl)-1H-1,2,3-triazol-1-yl)ethoxy)ethoxy)ethoxy)propenamide [Compound 36]”, the cytotoxicity/viability entry in data set [1] (HepG2, up to a concentration of 100 μM) is on record as “nontoxic”; in data set [3] (HK-2, up to a concentration of 100 μM) it was “nontoxic”; in data set [6] (COS-1, up to a concentration of 100 μM), “nontoxic”. Further, the “activation of obstructed mutated PXR LBD two-hybrid” value in data set [2] was “does not activate”. Further, the “SULT1E1, SULT1B1, CYP7B1 and NR0B2 (SHP) gene expression” value in data set [5] (MI891 5 μM, MI1013 2 μM) is “significantly downregulated”. Besides, in data set [5] (MI891 5 μM, SPA70 5 μM, MI1013 2 μM), the CYP3A4 gene expression entry was “downregulated”. Moreover, in data set [7], the “effect on wt-PXR-LBD/SRC1-VP16 two-hybrid” value is “does not activate”.
